# Where a SMILES comes first, the peptide text is derived from it. Where no end group is shown, it is not given here.
# T1: BIN1-SH3 (Homo sapiens, UniProt O00499)
# T1 construct: GST (cleaved yes); Genecast (peptides); host or cells: E. coli BL21-DE3 GOLD
# T1 sequence (O00499 520-593 limits assumed): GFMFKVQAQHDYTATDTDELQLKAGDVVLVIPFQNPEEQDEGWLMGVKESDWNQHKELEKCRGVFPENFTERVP
# T2: ASAP1-SH3 (Homo sapiens, UniProt Q9ULH1)
# T2 construct: Two SH3 domains were expressed and purified: ASAP1-SH3 (Addgene: 91501), BIN1-SH3 (GenScript); GST (cleaved yes); host or cells: E. coli BL21-DE3 GOLD
# T2 sequence (Q9ULH1 1067-1129 limits assumed): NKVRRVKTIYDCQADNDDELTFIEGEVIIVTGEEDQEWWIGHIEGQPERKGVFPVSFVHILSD
# T3: BIN1 SH3 (Homo sapiens, UniProt O00499)
# T3 chain: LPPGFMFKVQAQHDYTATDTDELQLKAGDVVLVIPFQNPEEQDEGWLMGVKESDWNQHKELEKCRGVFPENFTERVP
# T4: ASAP1 SH3 (Homo sapiens, UniProt Q9ULH1)
# T4 chain: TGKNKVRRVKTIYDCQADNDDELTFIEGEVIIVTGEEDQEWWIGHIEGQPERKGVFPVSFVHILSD
# Key:
# BIN1-SH3 [1] = molecular target: T1, BIN1-SH3; assay: Fluorescence polarization displacement, BIN1-SH3 domain with non-labeled hnRNP G peptides; format: binding; details: for binding affinity for BIN1-SH3 (in words): fluorescence polarization, 50 mM potassium phosphate pH 7.5, 1 mM TCEP
# Description: (§1) To further investigate if the tri-proline region spanning the variant had the capacity to interact with SH3 domains, a fluorescence polarization assay with hnRNP G peptides and SH3 domains were performed. Wildtype and mutant (△P162) hnRNP G peptides of different lengths spanning the region of interest (P38159) were ordered from Genecast (Supplementary material 2) with or without Fluorescein isothiocyanate (FITC)-label (purity >95%, dissolved in 50 mM potassium phosphate pH 7.5). Two SH3 domains were expressed and purified: ASAP1-SH3 (Addgene: 91501), BIN1-SH3 (GenScript) according to standard protocol (Supplementary material 2).
# (§2) To determine the affinity between BIN-SH3 domain and the non-labeled hnRNP G peptides, displacement experiments were performed where the fixed concentration of FITC-labeled peptide and protein was mixed with an increasing concentration of displacer non-labeled peptide. The mP signal was investigated to determine the IC50 values, which were then converted to dissociation constants as previously described. All results were analyzed with GraphPad Prism to determine the dissociation constant for labeled peptide and the IC50 values, and Microsoft Excel was used to calculate KD from IC50. All fluorescence polarization experiments were performed in 50 mM potassium phosphate pH 7.5, containing 1 mM tris(2-carboxyethyl)phosphine (TCEP).
# SH3 domains were expressed by transforming expression constructs into E. coli (BL21-DE3 GOLD) and grown in LB media with 50 µg/ml ampicillin (ASAP1) or 50 µg/ml kanamycin (BIN1) at 37°C until reaching an OD600 of 0.6. Protein expression was induced with 1mM isopropyl-β-thiogalactopyranoside and the protein expression proceeded overnight at 18 °C. Cells were harvested and resuspended in lysis buffer (50 mM Tris/HCl pH 7.8, 10 µg/mL DNase I and RNase A (Hoffman-La Roche, Switzerland), 300 mM NaCl, 4 mM MgCl2, 2 mM CaCl2 and cOmplete EDTA-free Protease Inhibitor Cocktail (Hoffman-La Roche)) and lysed by sonication. Cell lysate was clarified by centrifugation at 20,000 g for 40 min, filtered and transferred to Glutathione Sepharose 4 Fast Flow media (GE Healthcare). After 30-minute incubation, glutathione media was washed with wash buffer (50 mM Tris/HCl pH 7.8 300 mM NaCl, 4 mM DTT), eluted with elution buffer (50 mM Tris/HCl pH 7.8 300 mM NaCl, 4 mM DTT, 10 mM reduced glutathione), and the GST-tag was cleaved overnight with PreScission protease (BIN1) or Thrombin (ASAP1). Next day the cleaved protein was applied to a […] to remove the tag, and pure protein was dialyzed into 50 mM potassium phosphate buffer pH 7.4, and concentrated using the Amicon ultra 15ml centrifugal filters (3kDa cutoff, Merck Millipore, UFC900308). Purity of the sample was analyzed by SDS-PAGE and its identity confirmed by MALDI-TOF mass spectrometry. The sample was then frozen until fluorescence polarization experiments were performed.
# BIN1-SH3 [2] = molecular target: T1, BIN1-SH3; assay: Fluorescence polarization saturation binding, BIN1-SH3 domain with FITC-labeled hnRNP G peptide; details: FITC-labeled peptide 10 nM
# Description: as §1, with “2). […]” for “2).”
# as §2, with “The mP signal was investigated to determine the IC50 values, which were then converted to dissociation constants as previously described.” left out, “(TCEP). […]” for “(TCEP).”
# ASAP1-SH3 [3] = molecular target: T2, ASAP1-SH3; assay: Fluorescence polarization saturation binding, ASAP1-SH3 domain with FITC-labeled hnRNP G peptide; details: FITC-labeled peptide 10 nM
# Description: as §1, with “2). […]” for “2).”
# as §2, with “The mP signal was investigated to determine the IC50 values, which were then converted to dissociation constants as previously described.” left out, “(TCEP). […]” for “(TCEP).”
# ASAP1-SH3 [4] = molecular target: T2, ASAP1-SH3; assay: Fluorescence polarization displacement, ASAP1-SH3 domain; format: binding
# Description: as §1
# as §2, with “(TCEP). […]” for “(TCEP).”
# BIN1 SH3 [5] = molecular target: T3, BIN1 SH3; assay: fluorescence polarization displacement
# BIN1 SH3 [6] = molecular target: T3, BIN1 SH3; assay: fluorescence polarization saturation
# ASAP1 SH3 = molecular target: T4, ASAP1 SH3; assay: fluorescence polarization saturation
molecule,measurement,setting,value
"C[C@H](NC(=O)[C@H](CO)NC(=O)[C@H](CCCNC(=N)N)NC(=O)[C@H](CCCCN)NC(=O)[C@@H]1CCCN1C(=O)[C@@H]1CCCN1C(=O)[C@@H]1CCCN1C(=O)CNC(=O)CNC(=O)[C@H](CO)NC(=O)[C@H](CCCNC(=N)N)NC(=O)[C@@H]1CCCN1C(=O)[C@@H]1CCCN1C(=O)CNC(=O)[C@H](CCCNC(=N)N)NC(=O)[C@@H](N)CCCCN)C(=O)N1CCC[C@H]1C(=O)N[C@@H](CO)C(=O)NCC(=O)N1CCC[C@H]1C(=O)N[C@@H](Cc1ccc(O)cc1)C(=O)O [hnRNP G aa 150-170, △P162] (H-KRGPPRSGGPPPKRSAPSGPY-OH; N-terminus and C-terminus assumed)",binding affinity for BIN1-SH3 (in words),BIN1-SH3 [1],no clear difference in binding affinity compared to the wildtype peptide
same,binding affinity for BIN1-SH3 (in words),"BIN1-SH3 [1]; listed as longer hnRNP G peptide, △P162 variant",no clear difference in SH3 binding affinity between the wildtype and the mutant peptide
"C[C@H](NC(=O)[C@H](CO)NC(=O)[C@H](CCCNC(=N)N)NC(=O)[C@H](CCCCN)NC(=O)[C@@H]1CCCN1C(=O)[C@@H]1CCCN1C(=O)CNC(=O)CNC(=O)[C@H](CO)NC(=O)[C@@H](N)CCCNC(=N)N)C(=O)N1CCC[C@H]1C(=O)N[C@@H](CO)C(=O)NCC(=O)N[C@@H](Cc1ccc(O)cc1)C(=O)O [hnRNP G aa 156-169, △P162] (H-RSGGPPKRSAPSGY-OH; N-terminus and C-terminus assumed)",binding affinity for BIN1-SH3 (in words),BIN1-SH3 [1],reduced binding affinity
same,affinity for BIN1-SH3 relative to wildtype peptide (fold),BIN1-SH3 [1]; short peptide aa 156–169 △P162 vs wildtype,threefold weaker affinity
"150-KRGPPPRSGGPPPKRSAPSGPy-170 [hnRNP G aa 150-170, wildtype FITC, FITC-labeled wildtype hnRNP G peptide, residues 150-170]",binding to BIN1-SH3 (in words),BIN1-SH3 [2],binding with moderate affinities
same,binding to ASAP1-SH3 (in words),ASAP1-SH3 [3],binding with moderate affinities
"C[C@H](NC(=O)[C@H](CO)NC(=O)[C@H](CCCNC(=N)N)NC(=O)[C@H](CCCCN)NC(=O)[C@@H]1CCCN1C(=O)[C@@H]1CCCN1C(=O)[C@@H]1CCCN1C(=O)CNC(=O)CNC(=O)[C@H](CO)NC(=O)[C@@H](N)CCCNC(=N)N)C(=O)N1CCC[C@H]1C(=O)N[C@@H](CO)C(=O)NCC(=O)N[C@@H](Cc1ccc(O)cc1)C(=O)O [hnRNP G aa 156-169, wildtype] (H-RSGGPPPKRSAPSGY-OH; N-terminus and C-terminus assumed)",binding affinity for BIN1-SH3 (in words),BIN1-SH3 [1],moderate affinities
same,binding affinity for BIN1-SH3 (in words),BIN1-SH3 [1]; listed as shorter hnRNP G peptide (aa 156–169),weaker but comparable affinity
same,binding affinity for ASAP1-SH3 (in words),ASAP1-SH3 [4],moderate affinities
RSGGPPPKRSAPSG [hnRNP G 156-169],Kd,BIN1 SH3 [5],150 µM
"KRGPPPRSGGPPPKRSAPSGP (also: FITC-labeled, site not given here)",Kd,BIN1 SH3 [6],~400 µM
same,Kd,ASAP1 SH3,~400 µM
KRGPPPRSGGPPPKRSAPSGP,Kd,BIN1 SH3 [5],40 µM

# — PMC10923852, “Gustavson syndrome is caused by an in-frame deletion in RBMX associated with potentially disturbed SH3 domain interactions” (European Journal of Human Genetics, 2023)
